The source made the active and inactive calls. The rule behind the calls is not given here.

Usually Kd stands for the free concentration of one partner at which half of the binding sites on the other are occupied at equilibrium, for simple one-to-one binding.

Sequence of Peptidyl-prolyl cis-trans isomerase FKBP1A (Homo sapiens) (P62942 whole entry, looked up): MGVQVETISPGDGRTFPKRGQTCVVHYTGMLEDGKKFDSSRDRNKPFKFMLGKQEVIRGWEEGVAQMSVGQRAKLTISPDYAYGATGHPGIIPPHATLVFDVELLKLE

The assay addresses Peptidyl-prolyl cis-trans isomerase FKBP1A (Homo sapiens) (UniProt P62942). In words: small-molecule binding to FKBP12 – biophysical, NMR detection (AID 608). As to conditions: purified FKBP12.
As to `O=C(O)CN1C(=O)c2ccc(C(=O)O)cc2C1=O`, the Kd was > 4 mM (inactive).
For the compound `Cc1sc2nc(NCCO)[nH]c(=O)c2c1C`, the Kd is > 4 mM (inactive).
In the case of `Cc1nnc(Nc2cccnc2)[nH]c1=O` it was > 4 mM (inactive); in that of `CNC(=O)C1CC(=O)N(c2ccc(O)cc2)C1` (stereo not drawn), > 4 mM (inactive); in that of `CNC(=S)Nc1ncn(Cc2cccc(F)c2)n1`, > 4 mM (inactive).
For `COc1cc(C/C=C/c2ccccc2)c(OC)cc1O`, the Kd is > 4 mM (inactive).
In the case of `CCOC(=O)c1c(C)[nH]c2ccc(O)cc12`, the Kd is > 4 mM (inactive).
To `CC(O)C(=O)N/N=C/c1cccs1` (stereo not drawn) belongs > 4 mM (inactive).
To `NC(CCC(=O)Nc1ccc([N+](=O)[O-])cc1)C(=O)O` (stereo not drawn) belongs > 4 mM (inactive).
For `CCn1c2ccccc2c2nn(C)c(=N)nc21`, the Kd is > 4 mM (inactive).
For the compound `COc1ccc2c(=O)c(OC)c(-c3ccccc3)oc2c1`, the Kd is > 4 mM (inactive).
Consider `COC(=O)c1cn(C(=O)OC)c2ccccc12`, for which the Kd was > 4 mM (inactive).
Consider `COc1ccc(CN2CCOCC2)c(C)c1C`, for which the Kd was > 4 mM (inactive).
Take `Cc1occc1C(=O)Nc1nnc(C2CCCCC2)s1`: the Kd was > 4 mM (inactive).
Consider `O=C1CC(C(=O)O)c2ccccc21` (stereo not drawn), for which the Kd is > 4 mM (inactive).
`CCCCN1C(=O)C2CC/C(=N/O)CC2C1=O` (stereo not drawn): the Kd is > 4 mM (inactive).
For `COc1ccc(NC(=O)/C=N/O)cc1`, the Kd is > 4 mM (inactive).
To `CC(=O)Nc1ccc(NC(=O)/C=C\C(=O)O)cc1` belongs > 4 mM (inactive); to `Cc1cc(S(=O)(=O)N2CCOCC2)ccc1F`, > 4 mM (inactive).
Regarding `O=S(=O)(Nc1ccc(F)cc1)N1CCOCC1`, the Kd was > 4 mM (inactive).
For the compound `CC(C)C(=O)NC(=S)N1CCOCC1`, the Kd was > 4 mM (inactive).
For the compound `O=C(Nc1cccnc1)c1c(F)cccc1F`, the Kd is > 4 mM (inactive).
For `Cc1nn2c3ccccc3nc2n(Cc2ccccc2)c1=O`, the Kd is > 4 mM (inactive).
Turning to `O=C(c1ccc(F)cc1)N1CCN(c2ncccn2)CC1`, the Kd was > 4 mM (inactive).
As for `O=C(O)c1ccc(N2CCCCC2)cc1`, the Kd was > 4 mM (inactive).
For the compound `COc1cc(C(=S)N2CCC(C(N)=O)CC2)ccc1O`, the Kd was > 4 mM (inactive).
Turning to `CN(C)Cc1c(N)cccc1O`, the Kd was > 4 mM (inactive).
For the compound `NCCc1nc2ccccc2[nH]1`, the Kd was > 4 mM (inactive).
Take `COC(=O)Cc1cc(=O)n(-c2nc3ccccc3s2)[nH]1`: the Kd was > 4 mM (inactive).
To `CN1CCN(Cc2cccnc2)CC1` belongs > 4 mM (inactive); to `O=C1CNC(=O)N1c1cccc(Cl)c1`, > 4 mM (inactive); to `Cn1c(=O)[nH]c(=O)c2c1ncn2CCN1CCCCC1`, > 4 mM (inactive).
To `OCC(O)Cc1ccc2c(c1)OCO2` (stereo not drawn) belongs > 4 mM (inactive); to `CC(=O)N(c1ccccc1)C1C=CS(=O)(=O)C1` (stereo not drawn), > 4 mM (inactive); to `CC(C)c1ccc2c(c1)CCC1C(C)(C(N)=O)CCCC21C` (stereo not drawn), > 4 mM (inactive).
In the case of `O=C(N1CCOCC1)N1CCN(c2ccccn2)CC1`, the Kd was > 4 mM (inactive).
As for `NC(CSCSCC(N)C(=O)O)C(=O)O` (stereo not drawn), the Kd is > 4 mM (inactive).
Take `CC(C)NC(=O)c1cc(-n2cnnc2)ccc1Cl`: the Kd is > 4 mM (inactive).
For the compound `O=C1CC2OCC=C3CN4CC[C@]56c7ccccc7N1C5[C@H]2[C@H]3CC46` (stereo partly drawn), the Kd is > 4 mM (inactive).
As for `CSc1ccccc1NC(=O)c1ccco1`, the Kd was > 4 mM (inactive).
In the case of `OCc1ccc(-c2ccccn2)s1`, the Kd is > 4 mM (inactive).
In the case of `Nc1ccc(C(=O)NCC2CCCO2)cc1` (stereo not drawn) it was > 4 mM (inactive); in that of `CC1CCC(N2CCN(c3ncccn3)CC2)CC1` (stereo not drawn), > 4 mM (inactive).
As to `CCCN1CCC(N2CCC(O)CC2)CC1`, the Kd was > 4 mM (inactive).
Take `NC(=O)CSc1ccc2nnc(-c3cccs3)n2n1`: the Kd was > 4 mM (inactive).
To `O=C(O)C12CC3CC(CC(O)(C3)C1)C2` belongs > 4 mM (inactive).
On to `COC(=O)c1ccc(C(=S)N2CCOCC2)cc1`, for which the Kd is > 4 mM (inactive).
With `CN(C)C(=O)c1ccccc1-c1ccccc1`, the Kd was > 4 mM (inactive).
On to `Fc1cccc(Cl)c1CN1CCCNCC1`, for which the Kd is > 4 mM (inactive).
In the case of `CS(=O)(=O)Nc1ccccc1C(=O)c1ccccc1`, the Kd is > 4 mM (inactive).
Turning to `O=C(NN1C(=O)CSC1=S)c1ccccc1`, the Kd was > 4 mM (inactive).
In the case of `COc1cc(O)cc(/C=C/c2ccccc2)c1` it was > 4 mM (inactive).
For `NC(=O)CC1Nc2cccc3cccc(c23)NC1=O` (stereo not drawn), the Kd is > 4 mM (inactive).
With `COc1c(C(C)C)oc2cc3oc(=O)ccc3cc12`, the Kd is > 4 mM (inactive).
For the compound `O=C1CCC(C(=O)NCc2cccnc2)N1` (stereo not drawn), the Kd was > 4 mM (inactive).
As to `CNC(Cc1c[nH]c2ccccc12)C(=O)O` (stereo not drawn), the Kd was > 4 mM (inactive).
To `O=C(/C=C/c1ccccc1)NC1CCS(=O)(=O)C1` (stereo not drawn) belongs > 4 mM (inactive); to `CC(C)=CCc1c(O)cc2oc(C)cc(=O)c2c1O`, > 4 mM (inactive).
To `OCc1ccc(N2CCOCC2)cc1` belongs > 4 mM (inactive); to `Cc1cc(C(=O)N2CCN(c3ncccn3)CC2)cs1`, > 4 mM (inactive).
To `O=C(Nc1cccnc1)c1c(F)c(F)c(F)c(F)c1F` belongs > 4 mM (inactive); to `CC(=O)Nc1nc(C)nc(-c2ccccc2)c1C(C)=O`, > 4 mM (inactive).
For `O=c1nc(NCc2ccco2)sc2ncccc12`, the Kd was > 4 mM (inactive).
For the compound `Nc1cccc(S(=O)(=O)N2CCOCC2)c1`, the Kd is > 4 mM (inactive).
As for `CC(=O)c1cccc(NS(=O)(=O)N2CCOCC2)c1`, the Kd entry is “inactive”.
To `O=C(O)Cc1nc(-c2ccncc2)n[nH]1` belongs > 4 mM (inactive); to `Cn1c(=O)n(C)c2cc(C(N)=O)ccc21`, > 4 mM (inactive); to `COc1ccc(C2CC(=O)c3ccc(OC)cc3O2)cc1` (stereo not drawn), > 4 mM (inactive).
`COc1ccc(-c2coc3cc(O)ccc3c2=O)cc1`: the Kd was > 4 mM (inactive).
On to `Nc1ccccc1-n1cccn1`, for which the Kd was > 4 mM (inactive).
In the case of `CC(=O)Nc1sccc1C(N)=O` it was > 4 mM (inactive); in that of `CNC(=O)c1c(O)c2ccccc2[nH]c1=O`, > 4 mM (inactive).
To `Cc1cc(C)cc(NS(=O)(=O)N2CCCCC2)c1` belongs “inactive”; to `O=C(NCCO)c1cc2ccccc2c(=O)s1`, > 4 mM (inactive).
Turning to `O=C1C=CC2=C3c4cc(O)c(O)cc4C[C@@]3(O)COC2=C1`, the Kd is > 4 mM (inactive).
Consider `Nc1ccc2c(c1)COc1ccccc1O2`, for which the Kd was > 4 mM (inactive).
To `CC(=O)Nc1cccc(N2C(=O)CCC2=O)c1` belongs > 4 mM (inactive); to `S=C(Nc1ccccc1)Nc1nncs1`, > 4 mM (inactive).
